PubChem BioAssay AID1963978 (Molecular Pharmacology Branch, DTP, NCI, 2024)

System: 616215-338-R-J1-PDC spheroids with HUVEC/MSC, viability
Experiment: Anticancer human tumor 616215-338-R-J1-PDC patient-derived colon adenocarcinoma cell line growth inhibition [PI3K]
Details: for IC50: curve of first compound; for viability, T/C: stronger effect = lower value
Summary of the method: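 Three cell types, namely tumor cells, endothelial cells and mesenchymal stem cells, formed each spheroid. Combinations with four PI3K inhibitors were screened at clinically achievable concentrations decreasing by half-log, and spheroid viability was recorded.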

[1] = second compound 0.0316 µM, first compound 0.0316 µM
[2] = second compound 0.0316 µM, first compound 0.1 µM
[3] = second compound 0.0316 µM, first compound 0.316 µM
[4] = second compound 0.0316 µM, first compound 1 µM
[5] = second compound 0.0316 µM, first compound 3.16 µM
[6] = second compound 0.0316 µM, first compound 10 µM
[7] = second compound 0.1 µM, first compound 0.0316 µM
[8] = second compound 0.1 µM, first compound 0.1 µM
[9] = second compound 0.1 µM, first compound 0.316 µM
[10] = second compound 0.1 µM, first compound 1 µM
[11] = second compound 0.1 µM, first compound 3.16 µM
[12] = second compound 0.1 µM, first compound 10 µM
[13] = second compound 0.316 µM, first compound 0.0316 µM
[14] = second compound 0.316 µM, first compound 0.1 µM
[15] = second compound 0.316 µM, first compound 0.316 µM
[16] = second compound 0.316 µM, first compound 1 µM
[17] = second compound 0.316 µM, first compound 3.16 µM
[18] = second compound 0.316 µM, first compound 10 µM
[19] = second compound 1 µM, first compound 0.0316 µM
[20] = second compound 1 µM, first compound 0.1 µM
[21] = second compound 1 µM, first compound 0.316 µM
[22] = second compound 1 µM, first compound 1 µM
[23] = second compound 1 µM, first compound 3.16 µM
[24] = second compound 1 µM, first compound 10 µM
[25] = second compound 3.16 µM, first compound 0.0316 µM
[26] = second compound 3.16 µM, first compound 0.1 µM
[27] = second compound 3.16 µM, first compound 0.316 µM
[28] = second compound 3.16 µM, first compound 1 µM
[29] = second compound 3.16 µM, first compound 3.16 µM
[30] = second compound 3.16 µM, first compound 10 µM
[31] = second compound 10 µM, first compound 0.0316 µM
[32] = second compound 10 µM, first compound 0.1 µM
[33] = second compound 10 µM, first compound 0.316 µM
[34] = second compound 10 µM, first compound 1 µM
[35] = second compound 10 µM, first compound 3.16 µM
[36] = second compound 10 µM, first compound 10 µM
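Also: spheroids exposed to agents for seven days before the viability read.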

Compound: CC1(C)CCC(CN2CCN(c3ccc(C(=O)NS(=O)(=O)c4ccc(NCC5CCOCC5)c([N+](=O)[O-])c4)c(Oc4cnc5[nH]ccc5c4)c3)CC2)=C(c2ccc(Cl)cc2)C1 + Cc1nc(NC(=O)N2CCCC2C(N)=O)sc1-c1ccnc(C(C)(C)C(F)(F)F)c1
- IC50 (second compound 0.0316 µM): 5.22 µM
- IC50 (second compound 0.1 µM): 5 µM
- IC50 (second compound 0.316 µM): 4.98 µM
- IC50 (second compound 1 µM): 5.11 µM
- IC50 (second compound 3.16 µM): 5.37 µM
- IC50 (second compound 10 µM): 4.47 µM
- viability, T/C [1]: 95.6%
- viability, T/C [2]: 98.9%
- viability, T/C [3]: 108%
- viability, T/C [4]: 102%
- viability, T/C [5]: 86.4%
- viability, T/C [6]: 2.58%
- viability, T/C [7]: 97.4%
- viability, T/C [8]: 92.3%
- viability, T/C [9]: 95.8%
- viability, T/C [10]: 104%
- viability, T/C [11]: 81.5%
- viability, T/C [12]: 1.97%
- viability, T/C [13]: 98.5%
- viability, T/C [14]: 97.1%
- viability, T/C [15]: 90.5%
- viability, T/C [16]: 97.7%
- viability, T/C [17]: 81%
- viability, T/C [18]: 2.29%
- viability, T/C [19]: 103%
- viability, T/C [20]: 92.3%
- viability, T/C [21]: 102%
- viability, T/C [22]: 93%
- viability, T/C [23]: 85.3%
- viability, T/C [24]: 0.61%
- viability, T/C [25]: 95.6%
- viability, T/C [26]: 99.4%
- viability, T/C [27]: 101%
- viability, T/C [28]: 97.9%
- viability, T/C [29]: 91.9%
- viability, T/C [30]: 0.6%
- viability, T/C [31]: 92.8%
- viability, T/C [32]: 99.9%
- viability, T/C [33]: 94.8%
- viability, T/C [34]: 87.1%
- viability, T/C [35]: 72.4%
- viability, T/C [36]: 0.39%

Compound: C[C@@H](NC(=O)c1ncnc(N)c1Cl)c1ncc(C(=O)Nc2cc(C(F)(F)F)c(Cl)cn2)s1 + Cc1nc(NC(=O)N2CCCC2C(N)=O)sc1-c1ccnc(C(C)(C)C(F)(F)F)c1
- IC50 (second compound 0.0316 µM): > 10 µM
- IC50 (second compound 0.1 µM): > 10 µM
- IC50 (second compound 0.316 µM): > 10 µM
- IC50 (second compound 1 µM): > 10 µM
- IC50 (second compound 3.16 µM): > 10 µM
- IC50 (second compound 10 µM): 4.85 µM
- viability, T/C [1]: 91.9%
- viability, T/C [2]: 101%
- viability, T/C [3]: 94.3%
- viability, T/C [4]: 105%
- viability, T/C [5]: 112%
- viability, T/C [6]: 89.2%
- viability, T/C [7]: 111%
- viability, T/C [8]: 99.1%
- viability, T/C [9]: 101%
- viability, T/C [10]: 115%
- viability, T/C [11]: 93.7%
- viability, T/C [12]: 77.7%
- viability, T/C [13]: 107%
- viability, T/C [14]: 110%
- viability, T/C [15]: 106%
- viability, T/C [16]: 119%
- viability, T/C [17]: 109%
- viability, T/C [18]: 77.2%
- viability, T/C [19]: 112%
- viability, T/C [20]: 112%
- viability, T/C [21]: 107%
- viability, T/C [22]: 108%
- viability, T/C [23]: 108%
- viability, T/C [24]: 62.3%
- viability, T/C [25]: 102%
- viability, T/C [26]: 112%
- viability, T/C [27]: 103%
- viability, T/C [28]: 98.9%
- viability, T/C [29]: 81.1%
- viability, T/C [30]: 53.1%
- viability, T/C [31]: 97.5%
- viability, T/C [32]: 107%
- viability, T/C [33]: 88.9%
- viability, T/C [34]: 104%
- viability, T/C [35]: 68.3%
- viability, T/C [36]: 19.2%

Compound: Cn1ncnc1[C@H]1c2n[nH]c(=O)c3cc(F)cc(c23)N[C@@H]1c1ccc(F)cc1 + Cc1nc(NC(=O)N2CCCC2C(N)=O)sc1-c1ccnc(C(C)(C)C(F)(F)F)c1
- IC50 (second compound 0.0316 µM): > 0.1 µM
- IC50 (second compound 0.1 µM): > 0.1 µM
- IC50 (second compound 0.316 µM): > 0.1 µM
- IC50 (second compound 1 µM): > 0.1 µM
- IC50 (second compound 3.16 µM): > 0.1 µM
- IC50 (second compound 10 µM): > 0.1 µM
- viability, T/C (second compound 0.0316 µM, first compound 0.000316 µM): 95.2%
- viability, T/C (second compound 0.0316 µM, first compound 0.001 µM): 88.9%
- viability, T/C (second compound 0.0316 µM, first compound 0.00316 µM): 112%
- viability, T/C (second compound 0.0316 µM, first compound 0.01 µM): 89.3%
- viability, T/C [1]: 109%
- viability, T/C [2]: 99.1%
- viability, T/C (second compound 0.1 µM, first compound 0.000316 µM): 101%
- viability, T/C (second compound 0.1 µM, first compound 0.001 µM): 98.7%
- viability, T/C (second compound 0.1 µM, first compound 0.00316 µM): 97.8%
- viability, T/C (second compound 0.1 µM, first compound 0.01 µM): 97.2%
- viability, T/C [7]: 104%
- viability, T/C [8]: 109%
- viability, T/C (second compound 0.316 µM, first compound 0.000316 µM): 92%
- viability, T/C (second compound 0.316 µM, first compound 0.001 µM): 103%
- viability, T/C (second compound 0.316 µM, first compound 0.00316 µM): 89.6%
- viability, T/C (second compound 0.316 µM, first compound 0.01 µM): 104%
- viability, T/C [13]: 99.9%
- viability, T/C [14]: 90%
- viability, T/C (second compound 1 µM, first compound 0.000316 µM): 107%
- viability, T/C (second compound 1 µM, first compound 0.001 µM): 103%
- viability, T/C (second compound 1 µM, first compound 0.00316 µM): 94.5%
- viability, T/C (second compound 1 µM, first compound 0.01 µM): 93.4%
- viability, T/C [19]: 90.2%
- viability, T/C [20]: 93.5%
- viability, T/C (second compound 3.16 µM, first compound 0.000316 µM): 103%
- viability, T/C (second compound 3.16 µM, first compound 0.001 µM): 94.6%
- viability, T/C (second compound 3.16 µM, first compound 0.00316 µM): 98.5%
- viability, T/C (second compound 3.16 µM, first compound 0.01 µM): 93%
- viability, T/C [25]: 92.5%
- viability, T/C [26]: 87.7%
- viability, T/C (second compound 10 µM, first compound 0.000316 µM): 107%
- viability, T/C (second compound 10 µM, first compound 0.001 µM): 91.3%
- viability, T/C (second compound 10 µM, first compound 0.00316 µM): 85.7%
- viability, T/C (second compound 10 µM, first compound 0.01 µM): 81.3%
- viability, T/C [31]: 81.4%
- viability, T/C [32]: 80.4%
